In brackets after ≈: the same amount, converted by molar mass.
What follows are compounds tested on Fe-ADP-Ascorbate induced lipid peroxidation (LPO) in rat brain (assay: Inhibition of Fe-ADP-ascorbate induced lipid peroxidation (LPO) in rat brain homogenate). Settings: 37° C., 30 minutes.
Format: biochemical, Albino rats (Sprague Dawley strain)
Method: Inhibition of Fe-ADP-Ascorbate Induced Lipid Peroxidation (LPO) in Rat Brain by DBP and DCPs
Albino rats (Sprague Dawley strain) were sacrificed by cervical dislocation and decapitation. Brains were dissected out and 10% w/v homogenate was prepared in 0.15 M KCl. The brain homogenate was centrifuged at 1500 rpm for 10 minutes and the supernatant was used for the study. The incubation mixture contained in a final volume of 1 ml., brain homogenate (500 μl), distilled water (100 μl) or test compounds dissolved in solvents at different concentrations (10 to 100 μg/ml of the final volume). Peroxidation was initiated by adding FeCl3 (100 μM), ADP (1 mM) and ascorbate (100 μM) to give the final concentration stated. After incubating at 37° C. for 30 minutes, the reaction was stopped by adding acetic acid buffer (1.5 ml, pH 3.5) and thiobarbituric acid solution (1.5 ml, pH 7.4) to 1 ml of LPO mixture. The reaction mixture was heated at 85° C. for 30 minutes, cooled, centrifuged (2000 rpm for 10 minutes) and the absorbance of the supernatant was measured at 532 nm. IC50 values were calculated in the usual way by plotting the concentration of the test compounds versus percent inhibition of LPO.

Row | IC50 (effect on LPO) | Structure (SMILES)
1 | 30 µg/mL (≈ 131 µM) | O=c1oc2cc(O)ccc2c2ccc(O)cc12 [3,8-Dihydroxydibenzo-alpha-pyrone]
2 | 70 µg/mL (≈ 397 µM) | O=C1O[C@H]([C@@H](O)CO)C(O)=C1O [Ascorbic acid]
3 | 56 µg/mL | CC(=O)Oc1c(C)c(C)c2c(c1C)CCC(C)(CCC[C@H](C)CCC[C@H](C)CCCC(C)C)O2 (stereo partly drawn) [Vitamin E acetate]
